Values after ≈ are worked out from the molar mass of the structure shown. Read-outs that look alike come from different tables or passages of the source.
Tests used:
Assay type in all cases: cell-based, E. coli
F+ or F− cells = test: 24 hr. MIC bounds (turbid/clear wells); conditions: 8x serial dilutions, bounds identical for F+ or F− cells; for MIC: Escherichia coli
transconjugants = test: microbe, parasite or virus in culture; conditions: for Selectivities by EC50, Donors: listed as vs. transconjugants relative to donors
Source text: (§1) A 96-well fluorescence-based assay using oxygen biosensor plates (Becton Dickinson, Franklin Lakes, N.J., U.S.A.) was employed to monitor bacterial cell survival. FIG. 7 schematically illustrates the assay mechanism of action. […] In the absence of viable bacteria, however, no fluorescence emission is detected because the fluorophore is quenched by free oxygen. The assay can further be utilized to measure conjugative DNA transfer.
(§2) Relaxase-dependent cell survival was examined by placing cultures of F+/TraI+ E. coli cells (with antibiotic resistance, e.g., Ab^r1, on a non-conjugative plasmid) within wells and exposing them to putative inhibitory compounds. […] Negative controls for this assay can be F− (Ab^r2) cells and F+ cells (Ab^r1) containing either no F plasmid relaxase (TraI) gene, or a TraI harboring catalytic tyrosine to phenylalanine mutations; in both cases, these control cells should be resistant to relaxase-dependent cell toxicity. […] Fluorescence can be measured using a PHERASTAR™ fluorescence plate reader (BMG LABTECH, Offenburg, Germany) over 8 hours time.

F− recipient cells = test: microbe, parasite or virus in culture; conditions: for EC50 / 100 minute EC50: vs. F− recipient cells; for EC50: read-out: 100 minute EC50; for Selectivities by EC50, Donors: listed as vs. F− recipient cells relative to donors; for Selectivities by EC50, Transconj.: listed as vs. F− recipient cells relative to transconjugants
Source text: as §1, §2

F+ donor cells = test: microbe, parasite or virus in culture; conditions: for EC50 / 100 minute EC50: vs. F+ donor cells; for EC50: read-out: 100 minute EC50; for Selectivities by EC50, Transconj.: listed as vs. F+ donor cells relative to transconjugants
Source text: as §1, §2

[1] = clear wells after 24 hr. incubation, read-out: 24 hr. MIC bounds, upper
[2] = turbid wells after 24 hr. incubation, read-out: 24 hr. MIC bounds, lower
[3] = Escherichia coli, 100 min, read-out: 100 minute EC50, vs. transconjugants, first EC50 block, mass concentration
[4] = Escherichia coli, 100 min, read-out: 100 minute EC50, vs. transconjugants, second block
[5] = Escherichia coli, 100 min, read-out: 100 minute EC50, vs. transconjugants, second block, mass concentration
[6] = Escherichia coli, 100 min, first EC50 block, mass concentration
[7] = Escherichia coli, 100 min, first EC50 block
[8] = Escherichia coli, 100 min, second block, mass concentration
[9] = Escherichia coli, 100 min, second block
[10] = first EC50 block, mass concentration
[11] = second block, mass concentration

| SMILES | MIC (F+ or F− cells; [1]) | MIC (F+ or F− cells; [2]) | EC50 (transconjugants; [3]) | EC50 (transconjugants; [4]) | EC50 (transconjugants; [5]) | Selectivities by EC50, Donors (transconjugants; first EC50 block) | Selectivities by EC50, Donors (transconjugants; second block) | EC50 (F− recipient cells; [6]) | EC50 (F− recipient cells; [7]) | EC50 (F− recipient cells; [8]) | EC50 (F− recipient cells; [9]) | Selectivities by EC50, Donors (F− recipient cells; first EC50 block) | Selectivities by EC50, Transconj. (F− recipient cells; first EC50 block) | EC50 (F+ donor cells; [6]) | EC50 (F+ donor cells; [8]) | EC50 (F+ donor cells; [9]) | Selectivities by EC50, Transconj. (F+ donor cells; first EC50 block) | Selectivities by EC50, Transconj. (F+ donor cells; second block) | further results |
| --- | --- | --- | --- | --- | --- | --- | --- | --- | --- | --- | --- | --- | --- | --- | --- | --- | --- | --- | --- |
| O=P(O)(O)C(Cl)(Cl)P(=O)(O)O [Clodronate, reference compound] | 100 mM (≈ 24500 µg/mL) | 12.5 mM (≈ 3060 µg/mL) | 9 µg/mL | 5000 µM | 1000 µg/mL | 9.2E+00 | 1.6E−01 | 365 µg/mL | 1000 µM | > 24000 µg/mL | > 100000 µM | 3.6E+02 | 3.9E+01 | 1 µg/mL | 7000 µg/mL | 30000 µM | 1.1E−01 | 6.1E+00 | EC50 (transconjugants; Escherichia coli, 100 min, read-out: 100 minute EC50, vs. transconjugants, first EC50 block): 38 µM |
| COP(=O)(OC)c1ccccc1P(=O)(OC)OC [1,2-Bis(dimethoxyphosphoryl)benzene, 1,2-bis(dimethoxyphosphoryl)benzene] |  |  |  |  |  | 2.1E+02 |  |  |  |  |  | 3.3E+05 | 1.6E+03 |  |  |  | 4.8E−03 |  | 24 hr. MIC bounds, upper (F+ or F− cells; clear wells after 24 hr. incubation): 100 mM; 24 hr. MIC bounds, lower (F+ or F− cells; turbid wells after 24 hr. incubation): 12.5 mM; 100 minute EC50 (transconjugants; vs. transconjugants, first EC50 block, mass concentration): 4 µg/mL; EC50 (transconjugants; vs. transconjugants, first EC50 block, read-out: 100 minute EC50): 14 ± 0.3 µM; 100 minute EC50 (transconjugants; vs. transconjugants, second block, mass concentration): >29000 µg/mL; EC50 (transconjugants; vs. transconjugants, second block, read-out: 100 minute EC50): > 100000 µM; 100 minute EC50 (F− recipient cells; [10]): 7000 µg/mL; EC50 (F− recipient cells; first EC50 block): 22000 µM; 100 minute EC50 (F− recipient cells; [11]): >29000 µg/mL; EC50 (F− recipient cells; second block): > 100000 µM; 100 minute EC50 (F+ donor cells; [10]): 0.02 µg/mL; EC50 (F+ donor cells; first EC50 block): 0.068 µM; 100 minute EC50 (F+ donor cells; [11]): >29000 µg/mL; EC50 (F+ donor cells; second block): > 100000 µM |
| CC(O)(P(=O)(O)O)P(=O)(O)O [Etidronate, reference compound] | 12.5 mM (≈ 2580 µg/mL) | 1.56 mM (≈ 321 µg/mL) | 0.001 µg/mL | 1000 µM | 210 µg/mL | 7.3E−01 | 5.1E−02 | 67 µg/mL | 327 µM | 9000 µg/mL | 42000 µM | 4.3E+04 | 5.9E+04 | 0.002 µg/mL | 4000 µg/mL | 20000 µM | 1.4E+00 | 2.0E+01 | Selectivities by EC50, Donors (F− recipient cells; second block): 2.1E+00; Selectivities by EC50, Transconj. (F− recipient cells; second block): 4.1E+01; EC50 (F+ donor cells; [7]): 0.008 ± 0.0002 µM |

Reference: patent US20090221530A1, “Relaxase Modulators and Methods of Using Same” (priority 2005, published 2009)
